Structures can show the parent of a compound that is named as a salt.
How the values were obtained:
[1] = Loughborough sleep log, morning log: awoke refreshed / quality of sleep responses; format: in vivo, human
Excerpt: Typically, the percentage of individuals who, after taking a dose of triprolidine before sleeptime, wake refreshed after sleeping is in the range 1-100%, more typically, 5-70%, most typically 10-35%. An especially typical range as aforesaid is 15-30% or even more especially 20-30%. Typically, by the terms “waking refreshed” or “wake refreshed” is meant that an individual felt at least refreshed on waking, preferably, the terms are defined as the individual felt very refreshed or refreshed in accordance with the Loughborough sleep log.
The degree of refreshedness and quality of sleep may be determined by the “morning” log of the Loughborough sleep log with the highest degree of refreshedness or quality of sleep being represented as 1 and the lowest being represented as 5. Accordingly, the percentage increase in refreshedness or quality of sleep is measured in this context by the decrease in the mean refreshedness or quality of sleep.
Preferably, by the use of the present invention, the response of awakening very refreshed or refreshed, as determined, for instance, by the morning log of the Loughborough sleep log, is improved by at least 20%, more preferably, by at least, 30%, most preferably by at least 40%, as compared with an equivalent dose of placebo.
Preferably, by the use of the present invention, the response of sleeping extremely well or very well, as determined, for instance, in accordance with the morning log of the Loughborough sleep log, is improved by at least 20%, more preferably, at least, 35%, most preferably at least 50%, as compared with an equivalent dose of placebo.
Preferably, by the use of the present invention, the response of sleeping extremely well or very well, as determined, for instance, in accordance with the morning log of the Loughborough sleep log, is found for at least 20% of individuals, more preferably, at least 25%, most preferably, at least 30%. For example over 35% of individuals had such a response.

[2] = Karolinska 9-point scale: alertness / sleepiness on waking; format: in vivo, human
Excerpt: By the term felt alert is meant that an individual felt at least alert on waking. Preferably, the term is defined as the individual felt alert, very alert or extremely alert in accordance with the Karolinska 9-point scale. By the term felt sleepy is meant that an individual felt sleepy on waking. Preferably, the term is defined as the individual felt sleepy or very sleepy in accordance with points 8 or 9 of the Karolinska 9-point scale. Preferably, by the use of the present invention, the response of feeling extremely alert, very alert or alert as determined, for instance, in accordance with the Karolinska 9-point scale, is improved by at least 2%, more preferably, by at least, 5%, most preferably by at least 10%, as compared with an equivalent dose of placebo. Preferably, by the use of the present invention, the response of feeling sleepy and needing to make some effort to stay awake or very sleepy, as determined, for instance, in accordance with points 8 and 9 of the Karolinska 9 point scale, is improved (i.e. decreased) by at least 2%, more preferably, by at least, 4%, most preferably, by at least 10%, as compared with an equivalent dose of placebo.

[3] = single doses 10 mg or 20 mg sustained release at bedtime, volunteers, compared with placebo; cited from earlier work

Cc1ccc(/C(=C\CN2CCCC2)c2ccccn2)cc1 [TRP•HCl•H2O]
Loughborough Sleep Log: Awoke Very Refreshed or Refreshed Responses ([1]; 2.5 mg dose, Monday): 23% | Loughborough Sleep Log: Last Night I Slept Extremely Well or Very Well Responses ([1]; 2.5 mg dose, Monday): 41.4% | Loughborough Sleep Log: Awoke Very Refreshed or Refreshed Responses ([1]; 2.5 mg dose, Tuesday): 23% | Loughborough Sleep Log: Last Night I Slept Extremely Well or Very Well Responses ([1]; 2.5 mg dose, Tuesday): 41.8% | Loughborough Sleep Log: Awoke Very Refreshed or Refreshed Responses ([1]; 2.5 mg dose, Wednesday): 25.8% | Loughborough Sleep Log: Last Night I Slept Extremely Well or Very Well Responses ([1]; 2.5 mg dose, Wednesday): 37.9% | Loughborough Sleep Log: Awoke Very Refreshed or Refreshed Responses ([1]; 5 mg dose, Monday): 11.5% | Loughborough Sleep Log: Last Night I Slept Extremely Well or Very Well Responses ([1]; 5 mg dose, Monday): 50.9% | Loughborough Sleep Log: Awoke Very Refreshed or Refreshed Responses ([1]; 5 mg dose, Tuesday): 8.2% | Loughborough Sleep Log: Last Night I Slept Extremely Well or Very Well Responses ([1]; 5 mg dose, Tuesday): 28.8% | Loughborough Sleep Log: Awoke Very Refreshed or Refreshed Responses ([1]; 5 mg dose, Wednesday): 14.8% | Loughborough Sleep Log: Last Night I Slept Extremely Well or Very Well Responses ([1]; 5 mg dose, Wednesday): 39.3% | (b) I feel (i) sleepy, [and need to make] some effort or (ii) very sleepy, a great effort to keep awake ([2]; 2.5 mg dose, Monday): 11.5% | Karolinska 9-point scale (a) I feel extremely alert, very alert or alert ([2]; 2.5 mg dose, Monday): 21.3% | (b) I feel (i) sleepy, [and need to make] some effort or (ii) very sleepy, a great effort to keep awake ([2]; 2.5 mg dose, Tuesday): 13.1% | Karolinska 9-point scale (a) I feel extremely alert, very alert or alert ([2]; 2.5 mg dose, Tuesday): 21.3% | (b) I feel (i) sleepy, [and need to make] some effort or (ii) very sleepy, a great effort to keep awake ([2]; 2.5 mg dose, Wednesday): 6.5% | Karolinska 9-point scale (a) I feel extremely alert, very alert or alert ([2]; 2.5 mg dose, Wednesday): 21.0% | (b) I feel (i) sleepy, [and need to make] some effort or (ii) very sleepy, a great effort to keep awake ([2]; 5 mg dose, Monday): 12.5% | Karolinska 9-point scale (a) I feel extremely alert, very alert or alert ([2]; 5 mg dose, Monday): 6.3% | (b) I feel (i) sleepy, [and need to make] some effort or (ii) very sleepy, a great effort to keep awake ([2]; 5 mg dose, Tuesday): 17.5% | Karolinska 9-point scale (a) I feel extremely alert, very alert or alert ([2]; 5 mg dose, Tuesday): 9.5% | (b) I feel (i) sleepy, [and need to make] some effort or (ii) very sleepy, a great effort to keep awake ([2]; 5 mg dose, Wednesday): 12.7% | Karolinska 9-point scale (a) I feel extremely alert, very alert or alert ([2]; 5 mg dose, Wednesday): 17.5% | sleep onset latency (time required to fall asleep) [3]: did not significantly alter | total sleep time [3]: no effect | wakefulness during sleep [3]: no effect
